Test: xn = mol fraction of the nth substance listed, in the solute-free solvent

NC(=O)NC1NC(=O)NC1=O (stereo not given) + O + CCO
solubility (g/100 g solution)
Details	288.15 K	293.15 K	298.15 K	303.15 K	308.15 K	313.15 K	318.15 K	323.15 K	328.15 K	333.15 K
x2 = 0.264	0.0433	0.0548	0.0707	0.0891	0.116	0.137	0.163	0.189	0.225	0.262
x2 = 0.447	0.0924	0.108	0.137	0.174	0.216	0.263	0.298	0.355	0.417	0.46
x2 = 0.683	0.159	0.202	0.268	0.332	0.409	0.535	0.646	0.76	0.923	1.09
x2 = 0.829	0.239	0.306	0.394	0.487	0.63	0.785	1.02	1.21	1.48	1.74
x2 = 0.928	0.264	0.353	0.5	0.619	0.787	0.968	1.3	1.58	1.97	2.33

CC1CCC2C(C)C(OC(=O)CCC(=O)O)OC3OC4(C)CCC1C32OO4 (stereo not given) + CC(O)CO + O
solubility (g/100 g solution)
Details	278.15 K	283.15 K	288.15 K	293.15 K	298.15 K	303.15 K	308.15 K	313.15 K	318.15 K
x2 = 0.02567	0.0421	0.056	0.0717	0.092	0.114	0.145	0.181	0.223	0.275
x2 = 0.05599	0.0843	0.11	0.139	0.176	0.215	0.27	0.333	0.404	0.492
x2 = 0.0921	0.155	0.201	0.25	0.313	0.377	0.466	0.568	0.682	0.819
x2 = 0.1363	0.259	0.33	0.408	0.503	0.606	0.737	0.888	1.05	1.25
x2 = 0.1915	0.384	0.484	0.593	0.724	0.853	1.03	1.23	1.45	1.71
x2 = 0.2622	0.501	0.635	0.77	0.932	1.1	1.3	1.55	1.81	2.09
x2 = 0.3554	0.579	0.73	0.88	1.06	1.24	1.46	1.72	2	2.3
x2 = 0.4866	0.602	0.746	0.906	1.08	1.27	1.48	1.75	2.01	2.31
x2 = 0.6826	0.571	0.704	0.845	1.02	1.19	1.38	1.62	1.86	2.12

CCOc1ccccc1C(N)=O + CCO + CC#N
solubility (g/100 g solution)
Details	x2 = 0.1	x2 = 0.2	x2 = 0.3	x2 = 0.4	x2 = 0.5	x2 = 0.6	x2 = 0.7	x2 = 0.8	x2 = 0.9
293.15 K	3.67	4.64	5.5	6.13	6.78	6.6	6.09	5.58	4.95
298.15 K	4.87	5.98	7.15	7.99	8.56	8.45	7.95	7.21	6.29
303.15 K	6.28	7.75	8.84	9.86	10.4	10.1	9.58	8.65	7.54
308.15 K	8.19	9.9	11.3	12.4	13.1	13	12.2	11	9.7
313.15 K	10.5	12.4	14.4	15.7	16.2	16	15	13.7	11.8
318.15 K	13.3	15.6	17.7	19.2	19.9	19.5	18.3	16.5	14.7

— the CheMixHub drug solubility set
